Assay results: patent US5576324A, “Quinoline derivatives or salt thereof and remedy for cardiac diseases containing the same” (Kowa Co., Ltd., priority 1992, dated 1996)
Structures can show the parent of a compound that is named as a salt.

How the values were obtained:
[1] = system: Mouse Arrhythmia Induced by Chloroform (ventricular fibrillation); test: Action on Mouse Arrhythmia Induced by Chloroform; format: in vivo; details: 100 mg/kg given to mice, 20 min before chloroform
Procedure: Action on Mouse Arrhythmia Induced by Chloroform
Test compounds (100 mg/kg) were given to mice, and 20 minutes thereafter, the mice were confined in a pot filled with chloroform. Upon respiratory stoppage, the mice were immediately taken out of the pot, and electrocardiodiagram (lead II) was recorded to obtain ventricular tachycardia, ventricular fibrillation, and period until the cardiac arrest.

[2] = system: Blood Flow of a Hind Leg of Anesthetic Dog; test: Action on the Blood Flow of a Hind Leg of Anesthetic Dog; format: in vivo; details: Canis lupus familiaris; 100 μg into femoral artery, anesthetized dog; read-out: Increment of Blood Flow
Procedure: Action on the Blood Flow of a Hind Leg of Anesthetic Dog
Adult crossbred dogs were put under anesthesia with pentobarbital-Na (30 mg/kg) by intravenous injection, Heparin was administered to each dog, and an extracorporeal circulation circuit was established in the femoral artery, The blood flow in the hind leg was measured with an electromagnetic hemodromometer placed on the circuit, The samples were administered at a dose of 100 μg into the feromal artery through a rubber tube provided on the circuit.

[3] = system: Guinea Pig Atrium (left atrium contraction); test: Inotropic action on guinea pig atrium samples; details: Cavia porcellus, 10^-7 M, 1 Hz, 32° C., read-out: Increment of Contraction of the left atrium
Procedure: Inotropic Action and Action Against Time-dependent Action on Guinea Pig Atrium Samples
Guinea pigs were smashed at the head, and were exsanguinated through a cut in the carotid artery. Their hearts were taken out. From each heart, the right and left atria were obtained. The atria were suspended in Krebs-Henzereit solution at 32° C. through which a gas containing 95% oxygen and 5% carbon dioxide was passed. The tensile strength was measured with a strain gauge, and was amplified and recorded. Beats of right atria were counted using a tachometer, and the counts were regarded as the cardiac rate. Electric pulses (1 Hz, 5 msec) having twice the magnitude of the threshold were applied onto the left atria. The samples were given to […] in an accumulative manner at intervals of 5 minutes.
The results are expressed by the increment of contraction of the left atrium when 10^-7 M of a sample was administered.

Structure (SMILES): NCC1Cc2cc(Cl)c3c(c2O1)CCC(=O)N3 (stereo not drawn) [Example 121]
- % Inhibition of ventricular fibrillation [1]: 100%

Structure (SMILES): COc1ccc(CCNCC2Cc3cc(C)c4[nH]c(=O)ccc4c3O2)cc1OC (stereo not drawn) [Example 99]
- change in vivo at 0.1 mg [2]: 97%

Structure (SMILES): NCC1Cc2cc(Cl)c3[nH]c(=O)ccc3c2O1 (stereo not drawn) [Example 120, 2-Aminomethyl-5-chloro-2,3,6,7-tetrahydrofuro[2,3-f]quinoline-7-one.HCl]
- % Inhibition of ventricular fibrillation [1]: 90%
- change in vivo at 0.1 mg [2]: 110%

Structure (SMILES): Cc1cc2c(c3ccc(=O)[nH]c13)OC(CI)C2 (stereo not drawn) [Example 106, 2-Iodomethyl-5-methyl-2,3,6,7-tetrahydrofuro-[2,3-f]quinoline-7-one]
- activation at 0.1 µM [3]: 46.8%
- change in vivo at 0.1 mg [2]: 39.5%

Structure (SMILES): Cc1cc2c(c3ccc(=O)[nH]c13)OC(C)(CN)C2 (stereo not drawn) [Example 20]
- % Inhibition of ventricular fibrillation [1]: 100%

Structure (SMILES): Cc1cc2c(c3ccc(=O)[nH]c13)OC(CN)C2C (stereo not drawn) [Example 13, (2RS, 3SR)-2-Aminomethyl-3,5-dimethyl-2,3,6,7-tetrahydrofuro[2,3-f]quinoline-7-one.HCl]
- activation at 0.1 µM [3]: 31.8%

Structure (SMILES): Cc1cc2c(c3c1NC(=O)CC3)OC(CNS(C)(=O)=O)C2 (stereo not drawn) [Example 114]
- activation at 0.1 µM [3]: 18.8%

Structure (SMILES): Cc1cc2c(c3ccc(=O)[nH]c13)OC(CN1CCCCC1)C2 (stereo not drawn) [Example 82]
- change in vivo at 0.1 mg [2]: 31%

Structure (SMILES): Cc1cc2c(c3ccc(=O)[nH]c13)OC(CF)C2 (stereo not drawn) [Example 107, 2-Fluoromethyl-5-methyl-2,3,6,7-tetrahydrofuro-[2,3-f]quinoline-7-one]
- change in vivo at 0.1 mg [2]: 54.1%

Structure (SMILES): Cc1cc2c(c3c1NC(=O)CC3)OC(CF)C2 (stereo not drawn) [Example 108]
- change in vivo at 0.1 mg [2]: 54.8%

Structure (SMILES): COCC1Cc2cc(C)c3[nH]c(=O)ccc3c2O1 (stereo not drawn) [Example 109]
- activation at 0.1 µM [3]: 20.3%

Structure (SMILES): CC(=O)OCC1Cc2cc(C)c3[nH]c(=O)ccc3c2O1 (stereo not drawn) [Example 103, 2-Acetoxymethyl-5-methyl-2,3,6,7-tetrahydrofuro-[2,3-f]quinoline-7-one]
- activation at 0.1 µM [3]: 13.1%
- change in vivo at 0.1 mg [2]: 66.7%

Structure (SMILES): Cc1cc2c(c3ccc(=O)[nH]c13)OC(C)(CN)C2(C)C (stereo not drawn) [Example 22]
- % Inhibition of ventricular fibrillation [1]: 90%

Structure (SMILES): CCCCNCC1Cc2cc(C)c3[nH]c(=O)ccc3c2O1 (stereo not drawn) [Example 94, 2-(n-butylamino)methyl-5-methyl-2,3,6,7-tetrahydrofuro[2,3-f]quinoline-7-one.HCl]
- % Inhibition of ventricular fibrillation [1]: 100%

Structure (SMILES): Cc1cc2c(c3c1NC(=O)CC3)OC(C)(CN)C2 (stereo not drawn) [Example 21]
- change in vivo at 0.1 mg [2]: 35.7%

Structure (SMILES): NCC1Cc2c(ccc3[nH]c(=O)ccc23)O1 (stereo not drawn) [Example 50, 2-Aminomethyl-1,2,6,7-tetrahydrofuro[3,2-f]quinoline-7-one]
- activation at 0.1 µM [3]: 11.1%
- change in vivo at 0.1 mg [2]: 26.7%

Structure (SMILES): CCN(CC)CC1Cc2cc(C)c3c(c2O1)CCC(=O)N3 (stereo not drawn) [Example 77]
- % Inhibition of ventricular fibrillation [1]: 100%
